Experimental data taken from patent US20220117968A1, “THIENO[2,3-D)PYRIMIDINES AND BENZOFURO(3,2-D)PYRIMIDINES AS ANTIMICROBIAL AGENTS” (Saint Louis University, priority 2017, published 2022).
In brackets after ≈: the same amount, converted by molar mass.

Tests used:
[1] = tested on: WT Mtb Erdman strain; assay: Microplate Alamar Blue Assay (MABA); assay type: cell-based; details: Mycobacterium tuberculosis, Middlebrook 7H9 media, 7 days at 37° C., resazurin 24 hours; for MIC50: concentration that inhibits mycobacterial survival by 50%, read-out: MABA MIC50; for MIC90: concentration that inhibits mycobacterial survival by 90%, read-out: MABA MIC90
[2] = tested on: WT Mtb Erdman; assay: Disk zone of inhibition assay; assay type: cell-based; details: Mycobacterium tuberculosis, 240 h, radius of zone absent of bacterial growth, 5 μl of 100 mM stock in DMSO on disk, Middlebrook 7H10 agar, 10 days at 37° C.

CCc1nc(NC2CC2)c2ccsc2n1 [Example 1074, N-Cyclopropyl-2-ethyl-thieno[2,3-d]pyrimidin-4-amine]
MIC50 [1]: 6.1 µM (≈ 1.34 µg/mL) | MIC90 [1]: 22.7 µM (≈ 4.98 µg/mL) | zone of inhibition at 100000 µM (stock) [2]: 21 mm

CCc1nc(NCCCC(F)(F)F)c2ccsc2n1 [Example 1366, 2-Ethyl-N-(4,4,4-trifluorobutyl)thieno[2,3-d]pyrimidin-4-amine]
MIC50 [1]: 0.00133 µM (≈ 0.000385 µg/mL) | MIC90 [1]: 0.00369 µM (≈ 0.00107 µg/mL) | zone of inhibition at 100000 µM (stock) [2]: 14 mm

FC(F)(F)c1nc(NC2CC2)c2ccsc2n1 [Example 1541, N-Cyclopropyl-2-(trifluoromethyl)thieno[2,3-d]pyrimidin-4-amine]
MIC50 [1]: 36.8 µM (≈ 9.54 µg/mL) | MIC90 [1]: > 50 µM | zone of inhibition at 100000 µM (stock) [2]: 1.8 mm

CCCCNc1nc(C(F)(F)F)nc2sccc12 [Example 1545, N-Butyl-2-(trifluoromethyl)thieno[2,3-d]pyrimidin-4-amine]
MIC50 [1]: 26.9 µM (≈ 7.41 µg/mL) | MIC90 [1]: 30.5 µM (≈ 8.4 µg/mL) | zone of inhibition at 100000 µM (stock) [2]: 1.8 mm

CCCCNc1nc(CC)nc2scc(C)c12 [Example 1699, N-Butyl-2-ethyl-5-methylthieno[2,3-d]pyrimidin-4-amine]
MIC50 [1]: 35.5 µM (≈ 8.85 µg/mL) | MIC90 [1]: 45.5 µM (≈ 11.3 µg/mL) | zone of inhibition at 100000 µM (stock) [2]: 6 mm

CCc1nc(NC2CC2)c2c(C)csc2n1 [Example 1701, N-Cyclopropyl-2-ethyl-5-methylthieno[2,3-d]pyrimidin-4-amine]
MIC50 [1]: 9.77 µM (≈ 2.28 µg/mL) | MIC90 [1]: 16.1 µM (≈ 3.76 µg/mL) | zone of inhibition at 100000 µM (stock) [2]: 1.7 mm
